Measured values: PubChem BioAssay (NCI)
Values joined by “and” are separate entries in the source; they are usually repeats but may differ in a detail not shown here. Equal entries are not always repeated.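 Values below derive from 48-hour exposures of cells grown in 96-well plates, with endpoints linearly interpolated between the two concentrations bracketing the appropriate inhibition level. GI50: concentration for 50% inhibition of growth. TGI marks complete inhibition of growth.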

What was measured:
Test in all cases: growth of human tumour cells (NCI), 48 h
HOP-62 NSCLC = test system: HOP-62 NSCLC
U251 CNS = test system: U251 CNS
SW-620 colon = test system: SW-620 colon
MOLT-4 leukemia = test system: MOLT-4 leukemia
K-562 leukemia = test system: K-562 leukemia
SK-MEL-28 melanoma = test system: SK-MEL-28 melanoma
SN12C renal = test system: SN12C renal
HCT-116 colon = test system: HCT-116 colon
SNB-75 CNS = test system: SNB-75 CNS
HS 578T breast = test system: HS 578T breast

Structure (SMILES) | TGI (HOP-62 NSCLC) | TGI (U251 CNS) [µM] | TGI (SW-620 colon) [µM] | TGI (MOLT-4 leukemia) [µM] | TGI (K-562 leukemia) [µM] | TGI (SK-MEL-28 melanoma) | TGI (SN12C renal) | TGI (HCT-116 colon) | TGI (SNB-75 CNS) | TGI (HS 578T breast) [µM] | GI50 (U251 CNS) | GI50 (K-562 leukemia) [µM] | GI50 (SN12C renal) | GI50 (HS 578T breast) | GI50 (SK-MEL-28 melanoma) [µM] | GI50 (SNB-75 CNS) [µM]
NC1=NC2(COC(c3ccccc3)(c3ccccc3)c3ccccc3)OC(COC(c3ccccc3)(c3ccccc3)c3ccccc3)C(O)C2O1 (centres undefined) | > 100 µM | > 100 | > 100 | > 100 | > 100 | > 100 µM | > 100 µM | > 100 µM | 4.47 µM |  |  |  |  |  |  | 
Cc1cc(N(CCC#N)CCC#N)ccc1/C(N=Nc1ccccc1)=N\NC(=O)c1cc(Cl)ccc1O | > 100 µM | > 100 |  | 92.6 | > 100 |  | > 100 µM | 36.7 µM | > 100 µM | 80.2 |  |  |  |  |  | 
O=C(c1ccc(Cl)cc1)N(C(=O)N1CCCCC1)c1ccccc1 |  | > 100 | > 100 | 72 | > 100 | > 100 µM | > 100 µM | > 100 µM |  | > 100 |  |  |  |  |  | 
O=C(O)CCCc1ccc2c(c1)CC1(C2)Cc2cc3c(cc2C1)CCCC3 | 3.54 µM | 32.9 |  | 5.4 | 25.9 |  | 44.1 µM | 8.11 µM |  | > 100 |  |  |  |  |  | 
COc1cc2nc(Cl)nc(NS(=O)(=O)c3cc4ccccc4s3)c2cc1OC | > 100 µM | 68.5 | 43.5 |  | 52.6 | 0.11 µM | 90.6 µM | > 100 µM | 60 µM | > 100 |  |  |  |  |  | 
O=C(NCCC1CNc2ccccc21)OCc1ccccc1 (centres undefined) | > 100 µM | > 100 | > 100 | > 100 | > 100 | > 100 µM |  | > 100 µM |  | > 100 |  |  |  |  |  | 
C[C@@H]1CC[C@]2(C)C3(C)CC[C@]2(OC3=O)[C@@]12CC(c1ccoc1)OC2=O (some centres undefined) | > 100 µM | > 100 | 74.2 | 84.4 | 76.3 | 66.3 µM | 95.5 µM | 32.1 µM |  | > 100 |  |  |  |  |  | 
C[C@H]1CC[C@@]2(OC1)O[C@H]1C[C@H]3[C@@H]4CC[C@@H]5C[C@@H](OC6OC(CO)C(O)C(O)C6OC6OC(CO)C(O)C(O)C6O)CC[C@]5(C)[C@H]4CC[C@]3(C)[C@H]1[C@@H]2C (some centres undefined) | 3.99 µM | 4 | 3.4 | 3.79 | 4.33 |  | 3.77 µM | 3.7 µM | 4.07 µM | 4.47 |  |  |  |  |  | 
CCOC(=O)C1(C/C=C\CBr)CCCC1=O (centres undefined) | 56.7 µM | 48.7 | 54.9 |  |  | > 100 µM | 40.1 µM | 40 µM | > 100 µM | > 100 |  |  |  |  |  | 
CC(SC(=S)N1CCOCC1)C(=O)Nc1nnc(-c2ccc(Cl)cc2)o1 (centres undefined) | > 100 µM | > 100 | > 100 | > 100 |  | > 100 µM | > 100 µM | 67.5 µM | > 100 µM | > 100 |  |  |  |  |  | 
O=c1c(-c2ccccc2)nnc2n(Cc3ccccc3)c3ccccc3n12 |  | > 100 | > 100 | > 100 |  | > 100 µM | > 100 µM | > 100 µM | > 100 µM | > 100 |  |  |  |  |  | 
Cc1cc(O)c(/C=N/C(N)=S)c(=O)o1 | > 100 µM | > 100 | > 100 | > 100 |  |  | > 100 µM | > 100 µM | > 100 µM | > 100 |  |  |  |  |  | 
O=C(NCCN(CCNC(=O)c1cccc(O)c1O)CCNC(=O)c1cccc(O)c1O)c1cccc(O)c1O | > 91.6 µM | > 89 | > 100 |  | > 100 | > 100 µM | > 100 µM | > 100 µM | > 100 µM | > 100 |  |  |  |  |  | 
COC1(OC)CCc2c(sc3ncnc(Nc4cccc(Br)c4)c23)C1 | > 100 µM | > 100 | > 100 | 41.5 | > 100 |  | > 100 µM | > 100 µM | 83.2 µM | > 100 |  |  |  |  |  | 
O=c1[nH]c2[nH]c(=S)[nH]c(=S)c2[nH]1 | > 100 µM | > 100 | > 100 | > 100 | > 100 | > 100 µM | > 100 µM | > 100 µM |  | > 100 |  |  |  |  |  | 
Clc1ccc(C=Nc2ccc(Oc3ccc(Cl)cc3)c(Cl)c2)cc1 | 37.5 µM | 60.5 | > 100 | > 100 |  | 61.5 µM | 36.6 µM | 36.2 µM | 52.6 µM | 51.4 |  |  |  |  |  | 
COc1cc([C@@H]2c3cc4c(cc3[C@@H](Nc3ccc(NC(=O)c5cc([N+](=O)[O-])cn5C)cc3)[C@H]3COC(=O)[C@H]23)OCO4)cc(OC)c1O | 0.174 µM and 0.127 µM | > 57.5 |  |  | > 100 | > 100 µM | 0.262 µM and 0.437 µM | > 100 µM and 10 µM | > 63.5 µM | > 100 | 0.0436 µM and 0.337 µM | 0.293 | 0.0231 µM and 0.055 µM | 2.11 µM and 0.756 µM |  | 

Structure (SMILES) | TGI (HOP-62 NSCLC) | TGI (U251 CNS) [µM] | TGI (SW-620 colon) [µM] | TGI (MOLT-4 leukemia) [µM] | TGI (K-562 leukemia) [µM] | TGI (SK-MEL-28 melanoma) | TGI (SN12C renal) | TGI (HCT-116 colon) | TGI (SNB-75 CNS) | TGI (HS 578T breast) [µM] | GI50 (U251 CNS) | GI50 (K-562 leukemia) [µM] | GI50 (SN12C renal) | GI50 (HS 578T breast) | GI50 (SK-MEL-28 melanoma) [µM] | GI50 (SNB-75 CNS) [µM]
O=C1CC(c2cccc(Cl)c2)Nc2ccc(N3CCCC3)cc21 (centres undefined) | > 100 µM | > 100 | > 100 |  | 0.017 | > 100 µM | 0.0151 µM |  |  |  |  |  |  |  |  | 
COC(=O)[C@@H]1CO[C@H](C(C)(C)C)N1C(=O)N1C=CC(=O)C[C@H]1C | > 100 µM | > 100 | > 100 |  | > 100 | > 100 µM | > 100 µM | > 100 µM | > 100 µM | > 100 |  |  |  |  |  | 
COc1cc(C2c3cc4c(cc3OC(NN)C2C)OCO4)cc(OC)c1O (centres undefined) |  | 33.5 | > 100 |  | 12.6 | 33.9 µM | 62.2 µM | 20.1 µM | > 100 µM |  |  |  |  |  |  | 
COC(=O)/C=C/c1ccc(OP(=O)(O)O)c(OC)c1 | > 100 µM | > 100 | > 100 | > 100 |  | > 100 µM | > 100 µM | > 100 µM | > 100 µM | > 100 |  |  |  |  |  | 
Cc1ccc(S(=O)(=O)N(CC(O)COc2ccccc2)c2c(F)cccc2F)cc1 (centres undefined) | 42.7 µM | 29.1 | 67.7 | > 100 | > 100 | 31 µM | 47.8 µM |  | 49 µM | 46.1 |  |  |  |  |  | 
CCOC(=O)c1cn(CC)c(=O)n2c1nc1ccccc12 | > 100 µM | > 100 | > 100 | > 100 | > 100 | > 100 µM | > 100 µM | > 100 µM | > 100 µM |  |  |  |  |  |  | 
CSc1nncc(-c2cc3c(c(SC)n2)CCCC3)n1 | > 100 µM | > 100 | > 100 | > 100 | > 100 | > 100 µM | > 100 µM | > 100 µM | > 100 µM |  |  |  |  |  |  | 
Cn1c(CNc2ccc(-c3n[nH]c(=S)n3C)cc2)n[nH]c1=S | > 100 µM | > 100 | > 100 | > 100 | > 100 | > 100 µM | > 100 µM | > 100 µM | > 100 µM |  |  |  |  |  |  | 
c1cc(-c2ccc(-c3ccsc3)s2)cs1 | > 100 µM | 49.7 | > 100 | > 100 | > 100 |  | > 100 µM | > 100 µM | 76.4 µM | > 100 |  |  |  |  |  | 
O=[N+]([O-])c1cccc2nc3ccccc3c(NCCCCCNc3c4ccccc4nc4cccc([N+](=O)[O-])c34)c12 |  |  | 1.62 | 0.244 | 0.678 | 0.455 µM and 0.241 µM | 0.0777 µM and 0.0827 µM | 0.0346 µM | 0.867 µM and 0.827 µM | 0.512 |  |  |  |  | 0.0559 | 0.041
CC1(C)O[C@@H]2[C@@H](COC(C)(C)O[C@H]2C2SCCCS2)O1 | > 100 µM | > 100 | > 100 | > 100 | > 100 | > 100 µM | > 100 µM | > 100 µM |  |  |  |  |  |  |  | 
COc1ccc(CCCCNCc2cccc(CNCCCCc3ccc(OC)cc3)c2)cc1 | 4.99 µM | 3.71 | 3.28 | 6.86 |  | 3.73 µM | 3.64 µM | 3.88 µM | 3.38 µM | 3.27 |  |  |  |  |  | 
Cc1ccc(N=N/C(=N/NC(=O)c2ccccc2)c2ccc(N(CCC#N)CCC#N)cc2C)cc1 | > 100 µM | > 100 |  | > 100 | > 100 |  | > 100 µM | > 100 µM | > 100 µM | 46.9 |  |  |  |  |  | 
NNc1nnc(CCCCCCCCc2nnc(NN)n2N)n1N | > 100 µM | 49 | > 100 | > 100 | > 100 | > 100 µM | > 100 µM | > 100 µM | > 100 µM |  |  |  |  |  |  | 
CC(=O)NC1C(OCC(=O)NCCNc2ccc([N+](=O)[O-])c3[nH]c4ccccc4c(=O)c23)C(O)C(CO)OC1(C)OCc1ccccc1 (centres undefined) | > 100 µM | > 100 | > 100 | > 100 | > 100 |  | > 100 µM | > 100 µM | > 100 µM | > 100 |  |  |  |  |  | 
Cc1ccc(OCC2OC(n3cnc4c(Cl)nc(Nc5cc(Cl)cc(Cl)c5)nc43)CC2Oc2ccc(C)cc2)cc1 (centres undefined) |  | > 100 | > 100 | > 100 | > 100 | > 100 µM | > 100 µM | > 100 µM | > 100 µM | > 100 |  |  |  |  |  | 
N#Cc1sc2nc3ccccc3n2c1N | > 100 µM | > 100 | > 100 | > 100 |  | > 100 µM |  | > 100 µM | > 100 µM | > 100 |  |  |  |  |  | 
